Tests used:
[1] = system: Friend Leukemia Virus (FLV); experiment: Anti-Friend Leukemia Virus plaque inhibition in FG-10 cells; assay type: cell-based; settings: FG-10 cells infected with FLV; compound added one hour after infecting; 3 + 3 days incubation; read-out: IC50 (concentration giving 50% inhibition of plaques)
Experimental: The enhancement of the Anti-Friend Leukemia Virus (FLV) activity of zidovudine by bacterial thymidine phosphorylase is shown in Table 1. FG-10 cells were used seeded on a plate one day before they were infected with FLV. One hour after infecting, known concentrations of the test compound or combination were added. The plates were incubated for 3 days, the media replaced with fresh McCoy's 5A media and incubated another 3 days.

[2] = system: herpes simplex type 1 (KOS strain); experiment: Plaque reduction assay in Vero cells; assay type: cell-based; settings: HSV-1 KOS, three days
Experimental: Antiviral activity was determined using a plaque reduction assay. Petri plates were seeded with Vero cells which were then allowed to grow to confluency. Each plate was then infected with a fixed number of plaque forming units (abut 100-500) of herpes simplex type 1 (KOS strain). The inhibitors, either alone or in the indicated combinations, were dissolved to give the indicated concentration in minimal essential medium containing 2% heat inactivated fetal calf serum and 0.5% human immune serum globulin: One hour after infection the solutions (10 ml per plate) were added to the cultures. Three days later the cultures were formalin-fixed and stained with crystal violet, and the plaques were counted.

| Compound | IC50 [1] [nM] | Average Plaque Count ([2]; Conc. 0.1 μM) | Average Plaque Count ([2]; Conc. 0.25 μM) | Average Plaque Count ([2]; Conc. 0.5 μM) | Average Plaque Count ([2]; Conc. 1.0 μM) | Average Plaque Count ([2]; Conc. 2.5 μM) | Average Plaque Count ([2]; Conc. 5.0 μM) | Average Plaque Count ([2]; Conc. 7.5 μM) | Average Plaque Count ([2]; Conc. 10 μM) | inhibition at 0.1 µM ([2]; Human alphaherpesvirus 1, 72 h, Conc. 0.1 μM) [%] | inhibition at 0.25 µM ([2]; Human alphaherpesvirus 1, 72 h, Conc. 0.25 μM) [%] | inhibition at 0.5 µM ([2]; Human alphaherpesvirus 1, 72 h, Conc. 0.5 μM) [%] | inhibition at 1 µM ([2]; Human alphaherpesvirus 1, 72 h, Conc. 1.0 μM) [%] | inhibition at 2.5 µM ([2]; Human alphaherpesvirus 1, 72 h, Conc. 2.5 μM) [%] | inhibition at 5 µM ([2]; Human alphaherpesvirus 1, 72 h, Conc. 5.0 μM) [%] | inhibition at 7.5 µM ([2]; Human alphaherpesvirus 1, 72 h, Conc. 7.5 μM) [%] | inhibition at 10 µM ([2]; Human alphaherpesvirus 1, 72 h, Conc. 10 μM) [%] |
| --- | --- | --- | --- | --- | --- | --- | --- | --- | --- | --- | --- | --- | --- | --- | --- | --- | --- |
| Cc1cn([C@H]2C[C@H](N=[N+]=[N-])[C@@H](CO)O2)c(=O)[nH]c1=O [Zidovudine, 3′-azido-3′-deoxythymidine] | 5 | – | – | – | – | – | – | – | – | – | – | – | – | – | – | – | – |
| Nc1nc2c(ncn2COCCO)c(=O)[nH]1 [Acyclovir, 9-[(2-hydroxyethoxy)methyl]guanine] | – | 316.5 | 298 | 290.5 | 230 | 182 | 88 | 54 | 34.5 | 11.6 | 16.7 | 19 | 35.8 | 49.2 | 75.4 | 84.9 | 90.4 |

Reference: patent publication EP0289229A1, “Antiviral combinations” (THE WELLCOME FOUNDATION LIMITED, priority 1987, dated 1988)
